Source: US11058744B2, “Composition for treating prostate cancer” (GemVax & KAEL Co., Ltd., priority 2013, dated 2021)

What was measured:
LNCaP cell line = test: Transwell migration assay on LNCaP cell line; type: cell-based, human; conditions: medium containing docetaxel (3 nM), no Pep1
Description: The effects of Pep1 on cancer cell migration were evaluated by trans-well assay.
The cancer cell migration was evaluated by using the reagents and materials and the cell line incubation method which are described in connection with Example 1. A migration assay method used for this experiment is as follows.
The LNCaP cell line was incubated on a 6-well plate overnight, and then treated with various concentrations of Pep1 (0, 1, 10, 30 μM) and incubated for 24 hours. Thereafter, the resultant LNCaP cell line was seeded at the cell population of 1×10^4/well on a trans-well plate. Three hours after, the upper compartment of each well was removed, and cells that had migrated downwards were immobilized, stained, and quantified.
A separate experiment was further performed to identify cell migration when Pep1 was co-administered with docetaxel. The LNCaP cell line was incubated on a 6-well plate overnight, and then, treated with various concentrations of Pep1(0, 1, 3, 10, and 30 μM) and incubated for 24 hours. Additionally, the cell line was incubated in a growth medium containing docetaxel (3 nM) for 48 hours, and then, seeded on a trans-well plate at a cell population of 1×10^4/well. Three hours after, the upper compartment of each well was removed, and cells that had migrated downwards were immobilized, stained, and quantified. […]

[1] = test system: prostate cancer having a hormone tolerance; conditions: Beer et al, 2001; cited from earlier work
prostate cancer = conditions: administered together with docetaxel; Henly et al 2012; cited from earlier work

Structure (SMILES)	cancer cell migration (migrated cell number) (LNCaP cell line)	treatment efficiency [1]	anti-cancer effects (prostate cancer)
CC(=O)O[C@@]12CO[C@@H]1C[C@H](O)[C@@]1(C)C(=O)[C@H](O)C3=C(C)[C@@H](OC(=O)[C@H](O)[C@@H](NC(=O)OC(C)(C)C)c4ccccc4)C[C@@](O)([C@@H](OC(=O)c4ccccc4)[C@H]21)C3(C)C [docetaxel]	the cancer cell migration was increased	about 40%	
Nc1cccc2c1CN(C1CCC(=O)NC1=O)C2=O (stereo not drawn) [lenalidomide]			anti-cancer effects are significantly increased
